# Reference: US20240336606A1 (Suzhou Zelgen Biopharmaceuticals Co., Ltd., priority 2020, published 2024)
# Target: T1, binding of KRAS^G12C to SOS1 (Homo sapiens, UniProt Q07889)
# T1 construct: Tag1 (unspecified)
# T1 sequence (Q07889 1-1333): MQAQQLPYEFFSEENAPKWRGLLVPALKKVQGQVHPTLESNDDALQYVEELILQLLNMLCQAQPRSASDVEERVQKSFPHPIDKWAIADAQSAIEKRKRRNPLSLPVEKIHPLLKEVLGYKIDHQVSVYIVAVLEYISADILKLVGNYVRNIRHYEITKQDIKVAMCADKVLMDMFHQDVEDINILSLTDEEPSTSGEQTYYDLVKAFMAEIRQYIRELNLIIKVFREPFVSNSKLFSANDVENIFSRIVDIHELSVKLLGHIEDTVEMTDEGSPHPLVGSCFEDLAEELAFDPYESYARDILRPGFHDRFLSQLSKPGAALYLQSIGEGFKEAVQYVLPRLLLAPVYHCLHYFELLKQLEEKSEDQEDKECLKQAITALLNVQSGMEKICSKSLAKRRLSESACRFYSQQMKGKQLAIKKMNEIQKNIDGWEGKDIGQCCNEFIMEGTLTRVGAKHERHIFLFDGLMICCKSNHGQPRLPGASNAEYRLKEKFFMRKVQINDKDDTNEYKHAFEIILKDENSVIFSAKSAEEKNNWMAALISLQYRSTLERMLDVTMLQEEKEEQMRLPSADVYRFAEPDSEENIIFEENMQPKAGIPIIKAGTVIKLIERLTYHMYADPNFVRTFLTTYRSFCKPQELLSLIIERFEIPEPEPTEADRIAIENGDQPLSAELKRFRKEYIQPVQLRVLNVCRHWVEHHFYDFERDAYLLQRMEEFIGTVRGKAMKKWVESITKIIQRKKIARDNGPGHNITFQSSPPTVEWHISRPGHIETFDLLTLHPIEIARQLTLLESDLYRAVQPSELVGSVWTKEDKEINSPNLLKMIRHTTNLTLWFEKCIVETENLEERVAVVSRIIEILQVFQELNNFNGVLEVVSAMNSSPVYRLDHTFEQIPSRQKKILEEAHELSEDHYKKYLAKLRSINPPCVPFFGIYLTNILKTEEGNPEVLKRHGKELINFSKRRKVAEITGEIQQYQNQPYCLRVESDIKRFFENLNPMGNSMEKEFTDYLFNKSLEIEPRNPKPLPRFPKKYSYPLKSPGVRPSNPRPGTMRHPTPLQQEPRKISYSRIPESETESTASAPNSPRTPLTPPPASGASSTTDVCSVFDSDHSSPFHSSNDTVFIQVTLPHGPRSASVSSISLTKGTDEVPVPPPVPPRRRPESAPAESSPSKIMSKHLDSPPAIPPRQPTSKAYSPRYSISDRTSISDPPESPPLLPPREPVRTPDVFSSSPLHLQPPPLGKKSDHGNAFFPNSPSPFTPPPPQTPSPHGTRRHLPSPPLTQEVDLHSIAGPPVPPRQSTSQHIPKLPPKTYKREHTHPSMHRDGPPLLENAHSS
# Experiment: Inhibition of the binding of KRAS^G12C to SOS1
# Conditions: Tag1-SOS1 / Tag2-KRAS^G12C, 2 h incubation at room temperature; read-out: IC50 (nM), inhibitory activity on the binding of KRAS^G12C to SOS1
# Experimental: • (1) Gradient dilution of the test compounds: 10 mM mother solution (dissolved in 100% DMSO) was added to a 384-well test plate, the final content of DMSO being 0.25%.
# (2) 5 μL of Tag1-SOS1 solution was added to the test plate, and 5 μL of dilution buffer was added to the control group.
# (3) 5 μL of Tag2-KRAS^G12C solution was added to the test plate.
# (4) 10 μL of Anti-Tag1-Tb3+ and Anti-Tag2-XL665 detection solution were added to the test plate. The plate was centrifuged at 1000 rpm for 1 min and incubated at room temperature for 2 h.
# (6) The IC50 values for the compounds were finally calculated using GraphPad Prism software, and a curve was fit and plotted.
# The inhibitory activity of the compounds of the examples of the present invention on the binding of KRAS^G12C enzyme to SOS1 is shown in Table 1.
row,SMILES,IC50 [nM]
1,"COc1cc2nc(C)nc(N[C@H](C)c3cc(N)cc(C(F)(F)F)c3F)c2cc1OCCOC1CC1 [Example 35, (R)—N-(1-(5-Amino-2-fluoro-3-(trifluoromethyl)phenyl)ethyl)-6-(2-cyclopropoxyethyloxy)-7-methoxy-2-methylquinazolin-4-amine]",17
2,"COc1cc2nc(C)nc(N[C@H](C)c3cc(C(F)(F)F)ccn3)c2cc1OCCOC1CC1 [Example 36, (R)-6-(2-Cyclopropoxyethyloxy)-7-methoxy-2-methyl-N-(1-(4-(trifluoromethyl)pyridin-2-yl)ethyl)quinazolin-4-amine]",> 1000
3,"COc1cc2nc(C)nc(N[C@H](C)c3cc(C(F)(F)F)cc(N)n3)c2cc1OCCOC1CC1 [Example 38, (R)—N-(1-(6-Amino-4-(trifluoromethyl)pyridin-2-yl)ethyl)-6-(2-cyclopropoxyethyloxy)-7-m ethoxy-2-methylquinazolin-4-amine]",33
4,"COc1cc2nc(C)nc(N[C@H](C)c3cc(N)cc(C(F)(F)F)c3)c2cc1OC[C@@H]1CCCO1 [Example 39, N—((R)-1-(3-Amino-5-(trifluoromethyl)phenyl)ethyl)-7-methoxy-2-methyl-6-(((S)-tetrahydrofuran-2-yl)methoxy)quinazolin-4-amine]",21
5,"COc1cc2nc(C)nc(N[C@H](C)c3cc(N)cc(C(F)(F)F)c3)c2cc1OC[C@H]1CCCO1 [Example 40, N—((R)-1-(3-Amino-5-(trifluoromethyl)phenyl)ethyl)-7-methoxy-2-methyl-6-(((R)-tetrahydrofuran-2-yl)methoxy)quinazolin-4-amine]",8.2
6,"COc1cc2nc(C)nc(N[C@H](C)c3cc(N)nc(C(F)(F)F)c3)c2cc1OCCOC1CC1 [Example 41, (R)—N-(1-(2-Amino-6-(trifluoromethyl)pyridin-4-yl)ethyl)-6-(2-cyclopropoxyethoxy)-7-met hoxy-2-methylquinazolin-4-amine]",252
7,"COCCOc1cc2c(N[C@H](C)c3cc(N)cc(C(F)(F)F)c3)nc(C)nc2cc1OC [Example 42, (R)—N-(1-(3-Amino-5-(trifluoromethyl)phenyl)ethyl)-7-methoxy-6-(2-methoxyethoxy)-2-me thylquinazolin-4-amine]",5.6
8,"COCC1(COc2cc3c(N[C@H](C)c4cc(N)cc(C(F)(F)F)c4)nc(C)nc3cc2OC)COC1 [Example 43, (R)—N-(1-(3-Amino-5-(trifluoromethyl)phenyl)ethyl)-7-methoxy-6-((3-(methoxymethyl)oxetan-3-yl)methoxy)-2-methylquinazolin-4-amine]",5.2
9,"Cc1nc(N[C@H](C)c2cc(N)cc(C(F)(F)F)c2)c2cc(OCCOC3CC3)c(C(F)(F)F)cc2n1 [Example 45, (R)—N-(1-(3-Amino-5-(trifluoromethyl)phenyl)ethyl)-6-(2-cyclopropoxyethoxy)-2-methyl-7-(trifluoromethyl)quinazolin-4-amine]",167
10,"COc1cc2nc(C)nc(N[C@H](C)c3cc(N)cc(C(F)(F)F)c3)c2cc1OCC1(OC)CC1 [Example 46, (R)—N-(1-(3-Amino-5-(trifluoromethyl)phenyl)ethyl)-7-methoxy-6-((1-methoxycyclopropyl)methoxy)-2-methylquinazolin-4-amine]",10
11,COc1cc2nc(C)nc(N[C@H](C)c3cc(N)cc(C(F)(F)F)c3)c2cc1OC[C@H](C)OC [Example 47],7.4
12,"COc1cc2nc(C)nc(N[C@H](C)c3cc(N)cc(C(F)(F)F)c3)c2cc1OCCOC1CCC1 [Example 49, (R)—N-(1-(3-Amino-5-(trifluoromethyl)phenyl)ethyl)-6-(2-cyclobutoxyethoxy)-7-methoxy-2-methylquinazolin-4-amine]",4.6
13,"COCCOCCOc1cc2c(N[C@H](C)c3cc(N)cc(C(F)(F)F)c3)nc(C)nc2cc1OC [Example 50, (R)—N-(1-(3-Amino-5-(trifluoromethyl)phenyl)ethyl)-7-methoxy-6-(2-(2-methoxyethoxy)ethoxy)-2-methylquinazolin-4-amine]",4.2
